Experimental data published in patent US6586441B2, “Adenosine receptor ligands and their use in the treatment of disease” (Hoffman-La Roche Inc., priority 2000, dated 2003).

Key:
[1] = target: T1, human adenosine A1 receptor (Homo sapiens, UniProt P30542); assay: Human adenosine A1 receptor [3H]-DPCPX binding assay; settings: membranes of CHO cells, read-out: hA1 (pKi) (converted)
T1 construct: expressed in transfected cells; host or cells: CHO cells, semliki forest virus expression system; membrane preparation
T1 sequence (P30542 1-326): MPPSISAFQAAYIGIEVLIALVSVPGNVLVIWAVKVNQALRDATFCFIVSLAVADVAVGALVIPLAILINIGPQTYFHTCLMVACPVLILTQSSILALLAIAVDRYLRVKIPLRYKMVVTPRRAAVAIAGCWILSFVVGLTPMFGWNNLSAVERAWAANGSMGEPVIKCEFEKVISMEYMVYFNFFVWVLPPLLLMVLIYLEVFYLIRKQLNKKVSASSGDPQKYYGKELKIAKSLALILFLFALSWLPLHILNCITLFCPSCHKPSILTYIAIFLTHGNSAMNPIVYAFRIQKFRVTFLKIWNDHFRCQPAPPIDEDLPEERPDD
Description: (§1) The gene encoding human adenosine A1 receptor was recombinantly introduced and expressed in chinese hamster ovary (CHO) cells using the semliki forest virus expression system. Cells were harvested, washed twice by centrifugation, homogenised and again washed by centrifugation. The final washed membrane pellet was suspended in a Tris (50 mM) buffer containing 120 mM NaCl, 5 mM KCl, 2 mM CaCl2 and 10 mM MgCl2 (pH 7.4) (buffer A). The [^3H]-DPCPX (([propyl-3H]8-cyclopentyl-1,3-dipropyxanthine); 0.6 nM) binding assay was carried out in 96-well plates in the presence of 2.5 μg of membrane protein, 0.5 mg of Ysi-poly-1-lysine SPA beads and 0. I U adenosine deaminase in a final volume of 200 μl of buffer A. Non-specific binding was defined using xanthine amine congener (XAC; 2 μM). Compounds were tested at 10 concentrations from 10 μM-0.3 nM. All assays were conducted in duplicate and repeated at least two times. Assay plates were incubated for 1 hour at room temperature before centrifugation and then bound ligand determined using a Packard Topcount scintillation counter. IC50 values were calculated using a non-linear curve fitting program and Ki values calculated using the Cheng-Prussoff equation.

[2] = target: T2, human adenosine A2A receptor (Homo sapiens, UniProt P29274); assay: Human adenosine A2A receptor [3H]-SCH-58261 binding assay; settings: for hA2 (pKi): human A2A receptor, selectivity table; for Ki / pKi (affinity to the human A2a receptor): human A2a receptor, membranes of CHO cells, [3H]-SCH-58261; for Ki: read-out: pKi (affinity to the human A2a receptor) (converted)
T2 construct: expressed in transfected cells; host or cells: CHO cells, semliki forest virus expression system; membrane preparation
Description: as §1, with “A2A” for “A1”, “[^3H]-SCH-58261 (Dionisotti et al., 1997, Br. J. Pharmacol. 121, 353; 1” for “[^3H]-DPCPX (([propyl-3H]8-cyclopentyl-1,3-dipropyxanthine); 0.6”, “0.1” for “0. I”, “[…]).” for “μM).”

T2 sequence (P29274 whole entry): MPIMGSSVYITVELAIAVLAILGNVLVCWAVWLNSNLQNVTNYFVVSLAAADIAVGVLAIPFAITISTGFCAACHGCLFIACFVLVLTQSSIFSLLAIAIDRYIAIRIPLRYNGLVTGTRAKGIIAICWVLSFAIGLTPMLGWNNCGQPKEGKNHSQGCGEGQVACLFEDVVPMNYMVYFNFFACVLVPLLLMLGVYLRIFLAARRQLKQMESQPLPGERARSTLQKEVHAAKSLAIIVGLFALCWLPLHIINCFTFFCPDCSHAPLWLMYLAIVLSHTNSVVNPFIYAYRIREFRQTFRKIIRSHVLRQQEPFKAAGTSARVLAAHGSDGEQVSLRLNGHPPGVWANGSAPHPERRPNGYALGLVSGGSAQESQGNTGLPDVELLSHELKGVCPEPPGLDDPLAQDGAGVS

| SMILES | Ki [2] | also measured |
| --- | --- | --- |
| Cc1ccc(CNc2nc(N)nc(-c3ccco3)c2C#N)cc1 [Example 290, 2-Amino-4-furan-2-yl-6-(4-methyl-benzylamino)-pyrimidine-5-carbonitrile] | 6.76 nM | Ki [1]: 2040 nM; hA2 (pKi) [2]: 8.17 |
| N#Cc1c(NCc2ccc3ccccc3c2)nc(N)nc1-c1ccco1 [Example 298, 2-Amino-4-furan-2-yl-6-[(naphthalen-2-ylmethyl)-amino]-pyrimidine-5-carbonitrile] | 5.89 nM | Ki [1]: 6920 nM; hA2 (pKi) [2]: 8.23 |
| N#Cc1c(NCc2ccc(C(F)(F)F)cc2)nc(N)nc1-c1ccco1 [Example 345, 2-Amino-4-furan-2-yl-6-(4-trifluoromethyl-benzylamino)-pyrimidine-5-carbonitrile] | 4.17 nM | Ki [1]: 6310 nM; hA2 (pKi) [2]: 8.38 |
| Cc1cccnc1COc1cc(N)nc(-c2ccco2)c1C#N [Example 383, 6-Amino-2-furan-2-yl-4-(3-methyl-pyridin-2-yl-methoxy)-nicotinonitrile] | 1.91 nM | – |
| N#Cc1c(OCCc2ccccn2)cc(N)nc1-c1ccco1 [Example 384, 6-Amino-2-furan-2-yl-4-(2-pyridin-2-yl-ethoxy)-nicotinonitrile] | 3.02 nM | – |
| N#Cc1c(N)nc(SCc2ccccc2)c(C#N)c1-c1cccs1 [Example 389, 2-Amino-6-benzylsulfanyl-4-thiophen-2-yl-pyridine-3.5-dicarbonitrile] | 8.32 nM | – |
| N#Cc1c(NCc2ncc(C(F)(F)F)cc2Cl)nc(N)nc1-c1ccco1 [Example 400, 2-Amino-4-[(3-chloro-5-trifluoromethyl-pyridin-2-yl-methyl)-amino]-6-furan-2-yl-pyrimidine-5-carbonitrile] | 3.63 nM | Ki [1]: 4470 nM; hA2 (pKi) [2]: 8.44 |
| Cc1cnc(COc2nc(N)nc(-c3ccco3)c2C#N)c(C)c1 [Example 401, 2-Amino-4-(3,5-dimethyl-pyridin-2-ylmethoxy)-6-furan-2-yl-pyrimidine-5-carbonitrile] | 0.692 nM | – |
| Cc1cnc(CNc2nc(N)nc(-c3ccco3)c2C#N)c(C)c1 [Example 402, 2-Amino-4-[(3,5-dimethyl-pyridin-2-ylmethyl)-amino]-6-furan-2-yl-pyrimidine-5-carbonitrile] | 2.14 nM | – |
| N#Cc1c(OCCc2ccccn2)nc(N)nc1-c1cccc(F)c1 [Example 405, 2-Amino-4-(3-fluoro-phenyl)-6-(2-pyridin-2-yl-ethoxy)-pyrimidine-5-carbonitrile] | 7.41 nM | – |
| Cc1coc(-c2nc(N)nc(SCCc3ccccn3)c2C#N)c1 [Example 422, 2-Amino-4-(4-methyl-furan-2-yl)-6-(2-pyridin-2-yl-ethylsulfanyl)-pyrimidine-5-carbonitrile] | 1.35 nM | – |
| Cc1coc(-c2nc(N)nc(OCCc3ccccn3)c2C#N)c1 [Example 423, 2-Amino-4-(4-methyl-furan-2-yl)-6-(2-pyridin-2-yl-ethoxy)-pyrimidine-5-carbonitrile] | 3.02 nM | – |
| Cc1ccnc(CNc2nc(N)nc(C3=CCCO3)c2C#N)c1 [Example 464, 2-Amino-4-(4,5-dihydro-furan-2-yl)-6-[(4-methyl-pyridin-2-ylmethyl)-amino]-pyrimidine-5-carbonitrile] | – | pKi (affinity to the human A2a receptor) [2]: 8.12 |
| Cc1cnc(COc2nc(N)nc(-c3ccc(C)o3)c2C#N)c(C)c1 [Example 466, 2-Amino-4-(3,5-dimethyl-pyridin-2-ylmethoxy)-6-(5-methyl-furan-2-yl)-pyrimidine-5′-carbonitrile] | – | pKi (affinity to the human A2a receptor) [2]: 8.97 |
| N#Cc1c(SCCc2ccccn2)nc(N)nc1-c1ccc(Cl)o1 [Example 478] | – | pKi (affinity to the human A2a receptor) [2]: 8.96 |
| N#Cc1c(NCc2ccccc2Br)nc(N)nc1-c1ccc(Br)o1 [Example 512, 2-Amino-4-(2-bromo-benzylamino)-6-(5-bromo-furan-2-yl)-pyrimidine-5-carbonitrile] | – | pKi (affinity to the human A2a receptor) [2]: 8.88 |
| N#Cc1c(SCCc2ccccn2)nc(N)nc1-c1cc(Br)co1 [Example 521, 2-Amino-4-(4-bromo-furan-2-yl)-6-(2-pyridin-2-yl-ethylsulfanyl)-pyrimidine-5-carbonitrile] | 1.17 nM | – |
| N#CCc1ccc(-c2nc(N)nc(SCCc3ccccn3)c2C#N)o1 [Example 524, 2-Amino-4-(5-cyanomethyl-fran-2-yl)-6-(2-pyridin-2:yl-ethylsulfanyl)-pyrimidine-5-carbonitrile] | 5.75 nM | – |
| N#Cc1c(OCCc2ccccn2)nc(N)nc1-c1ccc(Cl)o1 [Example 525, 2-Amino-4-(5-chloro-furan-2-yl)-6-(2-pyridin-2-yl-ethoxy)-pyrimidine-5-carbonitrile] | 0.871 nM | – |
| Cc1cnc(COc2nc(N)nc(-c3ccc(Cl)o3)c2C#N)c(C)c1 [Example 526, 2-Amino-4-(5-chloro-furan-2-yl)-6-(3,5-dimethyl-pyridin-2-ylmethoxy)-pyrimidine-5-carbonitrile] | 4.27 nM | – |
| Cc1cccnc1COc1nc(N)nc(-c2ccc(Cl)o2)c1C#N [Example 530, 2-Amino-4-(5-chloro-furan-2-yl)-6-(3-methyl-pyridin-2-yl-methoxy)-pyrimidine-5-carbonitrile] | 1.74 nM | – |
| Cc1ccc(COc2nc(N)nc(-c3ccc(Cl)o3)c2C#N)nc1 [Example 531, 2-Amino-4-(5-chloro-furan-2-yl)-6-(5-methyl-pyridin-2-yl-methoxy)-pyrimidine-5-carbonitrile] | 5.62 nM | – |
| Cc1ccc(COc2nc(N)nc(-c3cc(Br)co3)c2C#N)nc1 [Example 532, 2-Amino-4-(4-bromo-furan-2-yl)-6-(5-methyl-pyridin-2-yl-methoxy)-pyrimidine-5-carbonitrile] | 5.62 nM | – |
| Cc1cnc(COc2nc(N)nc(-c3cc(Br)co3)c2C#N)c(C)c1 [Example 533, 2-Amino-4-(4-bromo-furan-2-yl)-6-(3,5-dimethyl-pyridin-2-yl-methoxy)-pyrimidine-5-carbonitrile] | 1.41 nM | – |
| Cc1cccnc1COc1nc(N)nc(-c2cc(Br)co2)c1C#N [Example 534, 2-Amino-4-(4-bromo-furan-2-yl)-6-(3-methyl-pyridin-2-yl-methoxy)-pyrimidine-5-carbonitrile] | 0.955 nM | – |
| N#Cc1coc(-c2nc(N)nc(SCCc3ccccn3)c2C#N)c1 [Example 535, 2-Amino-4-(4-cyano-furan-2-yl)-6-(2-pyridin-2-yl-ethylsulfanyl)-pyrimidine-5-carbonitrile] | 3.98 nM | – |
| N#Cc1c(SCCc2ccccn2)nc(N)nc1-c1ccc(C(F)F)o1 [Example 538, 2-Amino-4-(5-difluoromethyl-furan-2-yl)-6-(2-pyridin-2-yl-ethylsulfanyl)-pyrimidine-5-carbonitrile] | 1.95 nM | – |
